# In paper PMC12045974, “T cell toxicity induced by tigecycline binding to the mitochondrial ribosome” (Nature Communications, 2025):
# Several values for one entry are separate records, joined by “and”; a condition that tells them apart may be missing. Equal values may be shown once.
# Key:
# Type in all cases: cell-based, human
# [1] = system: CD4+ and CD8+ T cells; assay: Short-term activation assay, CD25 expression on stimulated T cells; settings: for mean MFI of CD25: 18 h after anti-CD3/CD28 activation + IL-2
# Procedure: (§1) After thawing frozen PBMCs, cells were washed with RPMI complemented with 10% FBS, 2.05 mM L-glutamine (Sigma), and 55 μM 2-ME (Gibco) and rested at 37 °C (5% CO2) for 30 min. 250,000 cells per well were seeded in 96-well U-bottom plates with/without Human T-Activator CD3/CD28 beads (Invitrogen) at a 1:1 ratio and 10 ng/ml IL-2 (Proteintech) in RPMI-1640 medium mentioned above. At the same time, antibiotics were added. For the short-term activation assay, cells were harvested 18 h post-stimulation and stained with Aqua fixable live/dead dye (Invitrogen) and surface markers. For the proliferation assays, cells were stained with CFSE (eBioscience) or Cell Trace Violet (ThermoFisher Scientific) dyes before seeding and stimulation, according to the manufacturer’s recommendations. For TCR priming experiments, tigecycline was added at 0, 24 or 72 h post-activation. For mitochondrial mass measuring, cells were stained with Mitotracker Green Fm Dye (Thermo Fisher Scientific) after incubation with Tigecycline. After incubation for 6 days with a half medium (complete, with antibiotics and IL-2) change after 3 days, cells were harvested via centrifugation, and stained with live/dead dye and surface markers for analysis by flow cytometry. The Foxp3/Transcription Factor Staining Buffer Set (Invitrogen) was used to fix cells according to the manufacturer’s instructions. The FACS gating strategy is shown in Supplementary Fig. 2D. Flow cytometry was carried out on a BD Celesta (BD Biosciences) and analyzed in FlowJo (TreeStar) software.
# [2] = system: CD4+ and CD8+ T cells within PBMCs; assay: T cell proliferation by flow cytometry (CTV/CFSE dilution) in stimulated PBMCs
# Procedure: as §1
# [3] = system: CD4+ T cell subsets (Tn, Tcm, Tem); assay: Proliferation of FACS-isolated naive, central memory and effector memory CD4+ T cells
# Procedure: Thawed PBMCs were washed with RPMI complemented with 10% FBS, 2.05 mM L-glutamine (Sigma), and 55 μM 2-ME (Gibco) before resting at 37 °C (5% CO2) for 30 min. After counting, cells were resuspended in FACS buffer at a density of 5 × 10^7 cells/ml. CD4^+ T cells were isolated using CD4^+ T cell negative isolation kits (Miltenyi Biotech) and enriched using CD4^+ T cell Enrichment kits (Miltenyi Biotech). Purified CD4^+ T cells were counted and stained with CTV dye and live/dead dye. Subsequently, surface makers were stained at 4 °C in FACS buffer (DPBS + 2% FBS). The following panels were used to classify human T CD4^+ cells from the live lymphocyte gate: naïve CD4^+ T cells: Aqua^-CD4^+CD45RA^+CD27^+; central memory CD4^+ T cells: Aqua^-CD4^+CD45RA^-CD27^+, effector memory CD4^+ T cells: Aqua^-CD4^+CD45RA^-CD27^-. After staining, cells were washed, resuspended and sorted using a FACSAria Fusion (BD Biosciences). Sorted cells were collected into PBS complemented with 2% FBS at 4 °C. Cells were then harvested via centrifugation and resuspended in RPMI-1640 ( + 10% FBS, 2.05 mM L-glutamine (Sigma), and 55 μM 2-ME (Gibco) before counting. Sorted CD4^+ subsets were counted and 85,000 cells per well seeded onto 96-well U-bottom plates with/without Human T-Activator CD3/CD28 beads (Invitrogen) at a 1:2.8 cell:bead ratio and 10 ng/ml IL-2 (Proteintech) in RPMI-1640 ( + 10% FBS, 2.05 mM L-glutamine (Sigma), and 55 μM 2-ME (Gibco). At the same time, tigecycline in serial concentrations (from 2.5 to 10 μM) was added. A half medium change took place after 3 days, and cells were harvested after 6 days for flow cytometry. Antibodies used in the study are presented in Supplementary Table 2.
smiles,measurement,setting,value
"CN(C)c1cc(NC(=O)CNC(C)(C)C)c(O)c2c1C[C@H]1C[C@H]3[C@H](N(C)C)C(O)=C(C(N)=O)C(=O)[C@@]3(O)C(O)=C1C2=O [Tigecycline, tigecycline]",mean MFI of CD25,"[1]; CD4, 2.5 μM",3754 and 3553 and 3674
same,mean MFI of CD25,"[1]; CD4, 5 μM",3471 and 3450 and 3256
same,mean MFI of CD25,"[1]; CD4, 10 μM",3082 and 3057 and 2814
same,mean MFI of CD25,"[1]; CD8, 2.5 μM",4522 and 5003 and 6223
same,mean MFI of CD25,"[1]; CD8, 5 μM",4093 and 4409 and 4799
same,mean MFI of CD25,"[1]; CD8, 10 μM",3582 and 3463 and 3588
same,expression of T cell activation marker CD25 (IL2RA),"[1]; stimulated CD4+ and CD8+ T cells, 18 h post-priming",reduced expression
same,T cell culture proliferation,[2]; 10 μM administered 24 or 72 h after TCR stimulation,significantly reduce
same,T cell proliferation,"[2]; CD4+ and CD8+ T cells within PBMCs, 6 days of anti-CD3/CD28 stimulation + IL-2",dose-dependent reductions in proliferation
same,% Cells in division 4 or later,"[2]; CD4, 0H",0.15% and 0.18% and 0.39%
same,% Cells in each division,"[2]; CD4, 0H, division number 1",23.9% and 13% and 15.5%
same,% Cells in each division,"[2]; CD4, 0H, division number 2",20.2% and 38.4% and 32.9%
same,% Cells in each division,"[2]; CD4, 0H, division number 4",0.42% and 2.83% and 5.88%
same,% Cells in each division,"[2]; CD4, 0H, division number 5",0% and 0.019% and 0.22%
same,% Cells in each division,"[2]; CD4, 0H, division number 6",0%
same,% Cells in each division,"[2]; CD4, 0H, division number 7",0%
same,% Cells in division 4 or later,"[2]; CD4, 10μM, 6 days, CTV dilution in live cells",6.485% and 4.27% and 0.862% and 2.104% and 3.325%
same,% Cells in division 4 or later,"[2]; CD4, 24H",0.21% and 0.19% and 0.9%
same,% Cells in each division,"[2]; CD4, 24H, division number 2",18.2% and 32.4% and 28.8%
same,% Cells in each division,"[2]; CD4, 24H, division number 5",0.044% and 0.15% and 0.38%
same,% Cells in each division,"[2]; CD4, 24H, division number 6",0% and 0.01%
same,% Cells in each division,"[2]; CD4, 24H, division number 7",0%
same,% Cells in each division,"[2]; CD4, 72H, division number 3",22.6% and 24.4% and 18.1%
same,% Cells in each division,"[2]; CD4, 72H, division number 6",1.08% and 0.32% and 1.2%
same,% Cells in each division,"[2]; CD4, 72H, division number 7",0%
same,% Cells in division 4 or later,"[2]; CD8, 0H",0.42% and 2.88% and 6.11%
same,% Cells in each division,"[2]; CD8, 0H, division number 1",38.7% and 31.7%
same,% Cells in each division,"[2]; CD8, 0H, division number 2",25.1% and 40.8% and 45.6%
same,% Cells in each division,"[2]; CD8, 0H, division number 3",4.86% and 6.4% and 12.3%
same,% Cells in each division,"[2]; CD8, 0H, division number 4",0.15% and 0.18% and 0.36%
same,% Cells in each division,"[2]; CD8, 0H, division number 5",0% and 0.019%
same,% Cells in each division,"[2]; CD8, 0H, division number 6",0%
same,% Cells in each division,"[2]; CD8, 0H, division number 7",0%
same,% Cells in division 4 or later,"[2]; CD8, 2.5μM, 6 days, CTV dilution in live cells",47.18% and 43.35% and 55.18% and 63.83% and 48.432%
same,% Cells in division 4 or later,"[2]; CD8, 10μM, 6 days, CTV dilution in live cells",6.12% and 2.26% and 7.121% and 11.81% and 6.155%
same,% Cells in each division,"[2]; CD8, 24H, division number 1",36.2% and 37.7% and 34%
same,% Cells in each division,"[2]; CD8, 24H, division number 2",22.1% and 39.5% and 41.6%
same,% Cells in each division,"[2]; CD8, 24H, division number 3",4.04% and 8.22% and 12.9%
same,% Cells in each division,"[2]; CD8, 24H, division number 4",0.19% and 0.87%
same,% Cells in each division,"[2]; CD8, 24H, division number 5",0.018% and 0% and 0.019%
same,% Cells in each division,"[2]; CD8, 24H, division number 6",0%
same,% Cells in each division,"[2]; CD8, 24H, division number 7",0%
same,% Cells in each division,"[2]; CD8, 72H, division number 0",1.06% and 7.49% and 1.18%
same,% Cells in each division,"[2]; CD8, 72H, division number 2",24.9% and 34.1% and 20.9%
same,% Cells in each division,"[2]; CD8, 72H, division number 3",45.1% and 28.9% and 40.2%
same,% Cells in each division,"[2]; CD8, 72H, division number 5",2.16% and 0.67% and 3.66%
same,% Cells in each division,"[2]; CD8, 72H, division number 6",0.03% and 0.025% and 0.033%
same,% Cells in each division,"[2]; CD8, 72H, division number 7",0%
same,"proliferation of naive, central memory and effector memory CD4+ T cells","[3]; 10 μM, 6 days",significantly inhibited the proliferation of all subsets
same,% Cells in each division,"[3]; Naïve, 2.5μM, division number 0",4.49% and 2.85% and 0.99%
same,% Cells in each division,"[3]; Naïve, 2.5μM, division number 2",44.1% and 38.6% and 39.3%
same,% Cells in each division,"[3]; Naïve, 2.5μM, division number 5",0.076% and 0.28% and 0.23%
same,% Cells in each division,"[3]; Naïve, 2.5μM, division number 6",0.17% and 0.1% and 0.16%
same,% Cells in each division,"[3]; Naïve, 2.5μM, division number 7",0.25% and 0.12%
same,% Cells in each division,"[3]; Naïve, 5μM, division number 0",3.52% and 9.14% and 5.5%
same,% Cells in each division,"[3]; Naïve, 5μM, division number 1",30.8% and 43.7% and 27.9%
same,% Cells in each division,"[3]; Naïve, 5μM, division number 2",51%
same,% Cells in each division,"[3]; Naïve, 5μM, division number 5",0.058% and 0.021% and 0.055%
same,% Cells in each division,"[3]; Naïve, 5μM, division number 6",0.28% and 0.21% and 0.25%
same,% Cells in each division,"[3]; Naïve, 5μM, division number 7",0.45% and 0.34% and 0.31%
same,% Cells in each division,"[3]; Naïve, 10μM, division number 0",20.7% and 12.2% and 12.7%
same,% Cells in each division,"[3]; Naïve, 10μM, division number 1",58.7% and 45.6% and 58.3%
same,% Cells in each division,"[3]; Naïve, 10μM, division number 2",19.7% and 37.8% and 26.9%
same,% Cells in each division,"[3]; Naïve, 10μM, division number 5",0% and 0.056% and 0.037%
same,% Cells in each division,"[3]; Naïve, 10μM, division number 6",0.22% and 0.27% and 0.31%
same,% Cells in each division,"[3]; Naïve, 10μM, division number 7",0.47% and 0.48% and 0.72%
same,% Cells in each division,"[3]; TCM, 2.5μM, division number 0",11.5% and 6.18% and 6.94%
same,% Cells in each division,"[3]; TCM, 2.5μM, division number 1",38% and 27.5% and 31.5%
same,% Cells in each division,"[3]; TCM, 2.5μM, division number 2",33.5% and 37.9% and 38.1%
same,% Cells in each division,"[3]; TCM, 2.5μM, division number 5",0.31% and 0.62% and 0.44%
same,% Cells in each division,"[3]; TCM, 2.5μM, division number 6",0.5% and 0.64% and 0.43%
same,% Cells in each division,"[3]; TCM, 2.5μM, division number 7",0.62% and 0.7%
same,% Cells in each division,"[3]; TCM, 5μM, division number 0",31.4% and 19.3% and 18.6%
same,% Cells in each division,"[3]; TCM, 5μM, division number 1",46.4% and 46.1% and 47.3%
same,% Cells in each division,"[3]; TCM, 5μM, division number 2",17% and 26.2% and 27.6%
same,% Cells in each division,"[3]; TCM, 5μM, division number 5",0.095% and 0.16% and 0.1%
same,% Cells in each division,"[3]; TCM, 5μM, division number 6",0.58% and 0.85% and 0.47%
same,% Cells in each division,"[3]; TCM, 5μM, division number 7",1.11% and 1.15% and 0.74%
same,% Cells in each division,"[3]; TCM, 10μM, division number 0",51.5% and 35.3% and 35.1%
same,% Cells in each division,"[3]; TCM, 10μM, division number 1",39.1% and 48.8% and 52.5%
same,% Cells in each division,"[3]; TCM, 10μM, division number 2",6.84% and 12.8% and 10.7%
same,% Cells in each division,"[3]; TCM, 10μM, division number 5",0.11% and 0.14% and 0.05%
same,% Cells in each division,"[3]; TCM, 10μM, division number 6",0.69% and 0.83% and 0.56%
same,% Cells in each division,"[3]; TCM, 10μM, division number 7",1.26% and 0.83%
